In brackets after ≈: the same amount, converted by molar mass. Read-outs that look alike come from different tables or passages of the source.
Columns and labels:
Assay type in all cases: cell-based
[1] = In vitro cytotoxicity, CCK-8 method; conditions: human, read-out: median inhibitory concentration (IC50), cytotoxicity
Protocol: The in vitro cytotoxicity of pleuromutilin easters was determined by a CCK-8 method (the kit used was purchased from Shanghai Xige Biotechnology Co., Ltd.). Take healthy HepG2, HEK293 and A549 cell culture fluids (the cells used were from the American type culture collection (ATCC), and the used cell culture fluids were purchased from Thermo Fisher Scientific (China) Co., Ltd.), inoculate in a sterile 96-well cell culture plate, 180 μL/well, ensure that the number of cells is 1*10^4/well, place in a 37° C. CO2 incubator with a volume fraction of 5%, and culture for 24 h until the cells completely adhered. Add the test and control solutions, 20 µL per well, set 6 duplicate wells in parallel, and incubate at 37° C. in a CO2 incubator with a volume fraction of 5% at 37° C. for 24 h, and observe the cells under a microscope. Add 20 μL of 5 g/L CCK-8 solution to each well, and continue to culture for 4 h. The culture was terminated, the culture medium in the wells was gently aspirated, 100 μL of dimethyl sulfoxide was added to each well, and the wells were shaken at low speed for 10 min on a shaker to fully dissolve the crystals. The absorbance value was measured, and the half inhibitory concentration (IC50) was then calculated. The cytotoxicity to HepG2, HEK293 and A549 cells was evaluated according to the half inhibitory concentration (IC50).

[2] = test system: Escherichia coli ATCC25922; assay: MIC, micro-broth dilution method
Protocol: (§1) The minimum inhibitory concentration (MIC) of pleuromutilin cinnamate easters and their starting materials was tested by a micro-broth dilution method, with retamoline, vornimulin and tiamulin as positive controls.
(§2) The experimental strains included Gram-positive bacteria: Methicillin-sensitive Staphylococcus epidermidis ATCC12228, Staphylococcus aureus ATCC29213 and ATCC25923, and Methicillin-resistant Staphylococcus aureus ATCC33591; Gram-negative bacteria: Acinetobacter baumannii ATCC19606 and E. coli Bacillus ATCC25922 (the strains used were from the American type culture collection (ATCC)).

[3] = test system: Methicillin-resistant Staphylococcus aureus ATCC33591; assay: MIC, micro-broth dilution method
Protocol: as §1, §2

[4] = test system: Methicillin-sensitive Staphylococcus epidermidis ATCC12228; assay: MIC, micro-broth dilution method; conditions: for inhibitory effect compared with the three tested positive controls: methicillin-sensitive Staphylococcus epidermidis, statement in words from Table 1
Protocol: as §1, §2

[5] = test system: Staphylococcus aureus ATCC25923; assay: MIC, micro-broth dilution method
Protocol: as §1, §2

[6] = test system: Staphylococcus aureus ATCC29213; assay: MIC, micro-broth dilution method
Protocol: as §1, §2

[7] = test system: Acinetobacter baumannii ATCC19606; assay: MIC, micro-broth dilution method; conditions: for inhibition compared with tiamulin: statement in words from Table 1
Protocol: as §1, §2

[8] = test system: the different bacteria tested; assay: MIC, micro-broth dilution method, overall comparison over all strains; conditions: statement in words from Table 1
Protocol: as §1, §2

[9] = Escherichia coli ATCC25922, 37° C., 20-22 h, read-out: Minimum inhibitory concentration
[10] = Methicillin-resistant Staphylococcus aureus ATCC33591, 37° C., 20-22 h, read-out: Minimum inhibitory concentration
[11] = Methicillin-sensitive Staphylococcus epidermidis ATCC12228, 37° C., 20-22 h, read-out: Minimum inhibitory concentration
[12] = Staphylococcus aureus ATCC25923, 37° C., 20-22 h, read-out: Minimum inhibitory concentration
[13] = Staphylococcus aureus ATCC29213, 37° C., 20-22 h, read-out: Minimum inhibitory concentration
[14] = Acinetobacter baumannii ATCC19606, 37° C., 20-22 h, read-out: Minimum inhibitory concentration
[15] = Escherichia coli, ATCC25922, read-out: Minimum inhibitory concentration
[16] = Staphylococcus aureus, ATCC33591, read-out: Minimum inhibitory concentration
[17] = Staphylococcus epidermidis, ATCC12228, read-out: Minimum inhibitory concentration
[18] = Staphylococcus aureus, ATCC25923, read-out: Minimum inhibitory concentration
[19] = Staphylococcus aureus, ATCC29213, read-out: Minimum inhibitory concentration
[20] = Acinetobacter baumannii, ATCC19606, read-out: Minimum inhibitory concentration

SMILES	IC50 at 24 h ([1]; A549 cells) [µM]	IC50 at 24 h ([1]; HEK293 cells) [µM]	IC50 at 24 h ([1]; HepG2 cells) [µM]	MIC [2, 9] [mg/L]	MIC [3, 10] [mg/L]	MIC [4, 11] [mg/L]	inhibitory effect compared with the three tested positive controls [4]	MIC [5, 12] [mg/L]	MIC [6, 13] [mg/L]	MIC [7, 14] [mg/L]	inhibition compared with tiamulin ([7]; Acinetobacter baumannii)	inhibitory activity compared with the three tested positive controls [8]	MIC [2, 15] [mg/L]	MIC [3, 16] [mg/L]	MIC [4, 17] [mg/L]	MIC [5, 18] [mg/L]	MIC [6, 19] [mg/L]	MIC [7, 20] [mg/L]
C=C[C@]1(C)C[C@@H](OC(=O)COC(=O)/C=C/c2ccc([N+](=O)[O-])cc2)[C@]2(C)[C@H](C)CC[C@]3(CCC(=O)[C@H]32)[C@@H](C)[C@@H]1O [Compound 1, (E)-2-(((3aR,4R,5R,8S,9R,12R)-8-hydroxy-4,7,9,12-tetramethyl-3-oxo-7-vinyldecahydro-4,9a-propanocyclopenta[8]annulen-5-yl)oxy)-2-oxoethyl 3-(4-nitrophenyl)acrylate]	> 200	> 200	> 200	32 (≈ 57.8 µM)	4 (≈ 7.22 µM)	2 (≈ 3.61 µM)	better than that of the positive controls	8 (≈ 14.4 µM)	2 (≈ 3.61 µM)	64 (≈ 116 µM)	as much as tiamulin							
C=C[C@]1(C)C[C@@H](OC(=O)COC(=O)/C=C/c2cccc(C#N)c2)[C@]2(C)[C@H](C)CC[C@]3(CCC(=O)[C@H]32)[C@@H](C)[C@@H]1O [Compound 5, (E)-2-(((3aR,4R,5R,8S,9R,12R)-8-hydroxy-4,7,9,12-tetramethyl-3-oxo-7-vinyldecahydro-4,9a-propanocyclopenta[8]annulen-5-yl)oxy)-2-oxoethyl 3-(3-cyanophenyl)acrylate]	> 200	29.2	78.5	64 (≈ 120 µM)	16 (≈ 30 µM)	2 (≈ 3.75 µM)	better than that of the positive controls	2 (≈ 3.75 µM)	8 (≈ 15 µM)	128 (≈ 240 µM)								
C=C[C@]1(C)C[C@@H](OC(=O)COC(=O)/C=C/c2ccc(N(C)C)cc2)[C@]2(C)[C@H](C)CC[C@]3(CCC(=O)[C@H]32)[C@@H](C)[C@@H]1O [Compound 10, (E)-2-(((3aR,4R,5R,8S,9R,12R)-8-hydroxy-4,7,9,12-tetramethyl-3-oxo-7-vinyldecahydro-4,9a-propanocyclopenta[8]annulen-5-yl)oxy)-2-oxoethyl 3-(4-(dimethylamino)phenyl)acrylate]	> 200	34.6	> 200	16 (≈ 29 µM)	2 (≈ 3.63 µM)	1 (≈ 1.81 µM)	better than that of the positive controls	1 (≈ 1.81 µM)	2 (≈ 3.63 µM)	32 (≈ 58 µM)	as much as tiamulin	better or equal to that of the three tested positive controls						
C=C[C@]1(C)C[C@@H](OC(=O)CSCCN(CC)CC)[C@]2(C)[C@H](C)CC[C@]3(CCC(=O)[C@H]32)[C@@H](C)[C@@H]1O [Tiamulin, reference compound]	> 200	84.9	27.1	128 (≈ 259 µM)	128 (≈ 259 µM)	16 (≈ 32.4 µM)		64 (≈ 130 µM)	256 (≈ 518 µM)	64 (≈ 130 µM)								
C=C[C@]1(C)C[C@@H](OC(=O)COC(=O)/C=C/c2ccc(C#N)cc2)[C@]2(C)[C@H](C)CC[C@]3(CCC(=O)[C@H]32)[C@@H](C)[C@@H]1O [Compound 6, (E)-2-(((3aR,4R,5R,8S,9R,12R)-8-hydroxy-4,7,9,12-tetramethyl-3-oxo-7-vinyldecahydro-4,9a-propanocyclopenta[8]annulen-5-yl)oxy)-2-oxoethyl 3-(4-cyanophenyl)acrylate]													> 256	64 (≈ 120 µM)	64 (≈ 120 µM)	32 (≈ 60 µM)	64 (≈ 120 µM)	> 256
C=C[C@]1(C)C[C@@H](OC(=O)COC(=O)/C=C/c2cccc(Cl)c2)[C@]2(C)[C@H](C)CC[C@]3(CCC(=O)[C@H]32)[C@@H](C)[C@@H]1O [Compound 2, (E)-2-(((3aR,4R,5R,8S,9R,12R)-8-hydroxy-4,7,9,12-tetramethyl-3-oxo-7-vinyldecahydro-4,9a-propanocyclopenta[8]annulen-5-yl)oxy)-2-oxoethyl 3-(3-chlorophenyl)acrylate]				64 (≈ 118 µM)	32 (≈ 58.9 µM)	8 (≈ 14.7 µM)	better than that of the positive controls	16 (≈ 29.5 µM)	32 (≈ 58.9 µM)	128 (≈ 236 µM)								
C=C[C@]1(C)C[C@@H](OC(=O)CSC(C)(C)CNC(=O)[C@H](N)C(C)C)[C@]2(C)[C@H](C)CC[C@]3(CCC(=O)[C@H]32)[C@@H](C)[C@@H]1O [Valnemulin, reference compound]													16 (≈ 28.3 µM)	> 256	64 (≈ 113 µM)	4 (≈ 7.08 µM)	2 (≈ 3.54 µM)	2 (≈ 3.54 µM)
C=C[C@]1(C)C[C@@H](OC(=O)COC(=O)/C=C/c2ccc(F)c(Cl)c2)[C@]2(C)[C@H](C)CC[C@]3(CCC(=O)[C@H]32)[C@@H](C)[C@@H]1O [Compound 20, (E)-2-(((3aR,4R,5R,8S,9R,12R)-8-hydroxy-4,7,9,12-tetramethyl-3-oxo-7-vinyldecahydro-4,9a-propanocyclopenta[8]annulen-5-yl)oxy)-2-oxoethyl 3-(3-chloro-4-fluorophenyl)acrylate]				64 (≈ 114 µM)	64 (≈ 114 µM)	32 (≈ 57 µM)		16 (≈ 28.5 µM)	32 (≈ 57 µM)	> 256								
C=C[C@]1(C)C[C@@H](OC(=O)COC(=O)/C=C/c2ccc(OC)cc2)[C@]2(C)[C@H](C)CC[C@]3(CCC(=O)[C@H]32)[C@@H](C)[C@@H]1O [Compound 4, (E)-2-(((3aR,4R,5R,8S,9R,12R)-8-hydroxy-4,7,9,12-tetramethyl-3-oxo-7-vinyldecahydro-4,9a-propanocyclopenta[8]annulen-5-yl)oxy)-2-oxoethyl 3-(4-methoxyphenyl)acrylate]	50.8	90.2	83.7	32 (≈ 59.4 µM)	16 (≈ 29.7 µM)	2 (≈ 3.71 µM)	better than that of the positive controls	4 (≈ 7.43 µM)	8 (≈ 14.9 µM)	> 256								
C=C[C@]1(C)C[C@@H](OC(=O)COC(=O)/C=C/c2ccc(F)cc2)[C@]2(C)[C@H](C)CC[C@]3(CCC(=O)[C@H]32)[C@@H](C)[C@@H]1O [Compound 11, (E)-2-(((3aR,4R,5R,8S,9R,12R)-8-hydroxy-4,7,9,12-tetramethyl-3-oxo-7-vinyldecahydro-4,9a-propanocyclopenta[8]annulen-5-yl)oxy)-2-oxoethyl 3-(4-fluorophenyl)acrylate]				128 (≈ 243 µM)	32 (≈ 60.8 µM)	32 (≈ 60.8 µM)		16 (≈ 30.4 µM)	32 (≈ 60.8 µM)	128 (≈ 243 µM)								

Reference: patent publication US11872202B2, “Pleuromutilin cinnamic acid ester compounds with activities against antibiotic-resistant infections” (SHAANXI UNIVERSITY OF SCIENCE AND TECHNOLOGY, priority 2021, dated 2024)
